According to ChEMBL document CHEMBL5518192, “Targeting aromatase to restrain oestrogen production and developing efficacious interventions against ER-positive cancer” (Eur J Med Chem, 2024):

Columns and labels:
Aromatase [1] = biological target: T1, Aromatase (Homo sapiens, UniProt P11511); assay: Binding affinity to human aromatase assessed as binding constant by Benesi-Hildebrand equation based analysis
T1 sequence (P11511 whole entry): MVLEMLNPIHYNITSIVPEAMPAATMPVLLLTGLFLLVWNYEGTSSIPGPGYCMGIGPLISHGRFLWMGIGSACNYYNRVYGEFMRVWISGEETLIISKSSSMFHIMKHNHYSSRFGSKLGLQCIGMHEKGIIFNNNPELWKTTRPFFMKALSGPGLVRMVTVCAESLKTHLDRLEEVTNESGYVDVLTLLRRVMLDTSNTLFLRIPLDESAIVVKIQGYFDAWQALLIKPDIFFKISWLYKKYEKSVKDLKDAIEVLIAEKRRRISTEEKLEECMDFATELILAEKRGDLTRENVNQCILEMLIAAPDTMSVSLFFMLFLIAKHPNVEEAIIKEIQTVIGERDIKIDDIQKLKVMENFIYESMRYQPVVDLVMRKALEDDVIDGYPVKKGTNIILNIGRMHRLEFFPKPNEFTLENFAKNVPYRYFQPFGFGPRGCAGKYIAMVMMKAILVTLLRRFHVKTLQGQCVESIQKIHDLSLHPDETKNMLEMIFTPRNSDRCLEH

in vitro = settings: human, plasma
Description: Stability in human plasma assessed drug degradation at 50 uM measured after 120 mins by spectrometer

Aromatase [2] = biological target: T1, Aromatase; assay: Binding affinity to human aromatase assessed as inhibition constant by Cheng-Prosuff equation based analysis
Hs-578T = assay: cells; settings: Homo sapiens, 48 h, read-out: GI
physchem = settings: octanol/water
Description: Octanol/water partition coefficient, log P of the compound

Albumin [3] = biological target: T2, Albumin (Homo sapiens, UniProt P02768); assay: Binding affinity to human serum albumin phosphate buffer at pH 7.4 assessed as conformational change in HSA by measuring increase in absorbance at 20 uM by UV-Vis absorption spectrum based analysis; assay type: ADME; settings: isolated protein, pH 7.4, 20 µM
MCF7 = assay: cells; settings: Homo sapiens, MCF7, 48 h, read-out: GI
Aromatase [4] = biological target: T1, Aromatase; assay: Binding affinity to human aromatase assessed as hyperchromic shift by measuring increase in absorbance intensity at 5 uM by UV-Vis spectral analysis
MDA-MB-231 = assay: Growth inhibition of estrogen receptor negative human MDA-MB-231 cells at 10 uM incubated for 48 hrs by SRB assay relative to control; assay type: functional; settings: read-out: GI
Aromatase [5] = biological target: T1, Aromatase; assay: Competitive inhibition of human aromatase using varying concentrations of androstenedione as substrate assessed as […] in Km with constant Vmax at 10 uM by Lineweaver-Burk equation based analysis
Aromatase [6] = biological target: T1, Aromatase
Description: Inhibition of human aromatase preincubated for 10 mins followed by NADP+/fluorogenic substrate mixture addition and measured for 60 mins by fluorimetric assay

T47D = assay: cells; settings: Homo sapiens, 48 h, read-out: GI
MDA-MB-468 = assay: Growth inhibition of estrogen receptor negative human MDA-MB-468 cells at 10 uM incubated for 48 hrs by SRB assay relative to control; assay type: functional; settings: read-out: GI
Albumin [7] = biological target: T2, Albumin; assay: Binding affinity to human serum albumin assessed as binding constant by spectrophotometer; assay type: ADME; settings: isolated protein
Aromatase [8] = biological target: T1, Aromatase; assay: Binding affinity to human aromatase assessed as change in free energy
BT-549 = assay: cells; settings: Homo sapiens, BT-549, 48 h, read-out: GI

T2 sequence (P02768 whole entry): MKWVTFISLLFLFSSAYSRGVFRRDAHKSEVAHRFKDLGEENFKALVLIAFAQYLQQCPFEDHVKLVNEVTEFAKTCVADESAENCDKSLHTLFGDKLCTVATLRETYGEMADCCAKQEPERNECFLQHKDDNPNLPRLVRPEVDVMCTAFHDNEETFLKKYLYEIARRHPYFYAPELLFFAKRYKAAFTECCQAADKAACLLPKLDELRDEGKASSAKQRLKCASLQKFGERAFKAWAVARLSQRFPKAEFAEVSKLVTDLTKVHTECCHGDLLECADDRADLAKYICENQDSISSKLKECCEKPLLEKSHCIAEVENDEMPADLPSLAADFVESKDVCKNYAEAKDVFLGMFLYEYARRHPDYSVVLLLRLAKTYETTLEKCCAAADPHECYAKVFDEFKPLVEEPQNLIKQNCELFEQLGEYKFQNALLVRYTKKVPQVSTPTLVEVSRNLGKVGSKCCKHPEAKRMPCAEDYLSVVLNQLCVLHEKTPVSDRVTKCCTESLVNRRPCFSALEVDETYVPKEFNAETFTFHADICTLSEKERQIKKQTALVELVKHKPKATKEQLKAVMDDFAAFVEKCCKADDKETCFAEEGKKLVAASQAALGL

In the case of `CCOC(=O)C(=O)c1cn(CCCCCNc2ccc(C(=C(C)c3ccccc3)c3ccccc3)cc2)c2ccccc12`, the Ka (Aromatase [1]) is reported as 5.5 10^4/M, the metabolised at 2 h, 50 µM (in vitro) is reported as 15.5% and the Ki (Aromatase [2]) is reported as 26 nM. For the same compound, the inhibition of growth at 10 µM (Hs-578T) was 6.04%, the logP (physchem) was 4.81 and the Activity (Albumin [3]) was “Active”. For the same compound, the inhibition of growth at 10 µM (MCF7) was 8.48%, the Activity (Aromatase [4]) was “Active” and the inhibition of growth at 10 µM (MDA-MB-231) was 18.2%. For the same compound, the “inhibition (INH)” value (Aromatase [5]) was “Active”, the IC50 (Aromatase [6]) was 54 nM and the inhibition of growth at 10 µM (T47D) was 30.1%. The inhibition of growth at 10 µM (MDA-MB-468) was 24.3%, the Ka (Albumin [7]) was 2.8 10^4/M and the deltaG (Aromatase [8]) was -6.72 kcal/mol.
Compound `C/C(=C(\c1ccccc1)c1ccc(NCCCCCn2cc(C(=O)C(=O)O)c3ccccc32)cc1)c1cccc(Br)c1` has a logP (physchem) of 5.33 and an IC50 (Aromatase [6]) of 800 nM.
For `COc1ccccc1/C(C)=C(/c1ccccc1)c1ccc(NCCCCCn2cc(C(=O)C(=O)O)c3ccccc32)cc1`, the logP (physchem) was 4.46 and the IC50 (Aromatase [6]) was 12300 nM.
`CCOC(=O)C(=O)c1cn(CCCNc2ccc(C(=C(C)c3ccccc3)c3ccccc3)cc2)c2ccccc12` showed a logP (physchem) of 4.46, an inhibition of growth at 10 µM (MCF7) of 10.9% and an inhibition of growth at 10 µM (MDA-MB-231) of 13.6%. For the same compound, the IC50 (Aromatase [6]) was 650 nM and the inhibition of growth at 10 µM (T47D) was 41%.
Compound `CC(=C(c1ccccc1)c1ccc(NCCCCCn2cc(C(=O)C(=O)O)c3ccccc32)cc1)c1ccccc1` has an inhibition of growth at 10 µM (Hs-578T) of 12.4%, a logP (physchem) of 4.97 and an IC50 (Aromatase [6]) of 3170 nM. For the same compound, the inhibition of growth at 10 µM (T47D) was 13% and the inhibition of growth at 10 µM (MDA-MB-468) was 7.71%.
Work on `CCOC(=O)C(=O)c1cn(CCCCCNc2ccc(/C(=C(/C)c3ccccc3OC)c3ccccc3)cc2)c2ccccc12` yielded a logP (physchem) of 4.31 and an IC50 (Aromatase [6]) of 133 nM.
For `COc1ccccc1/C(C)=C(/c1ccccc1)c1ccc(NCCCCn2cc(C(=O)C(=O)O)c3ccccc32)cc1`, the logP (physchem) was 4.29 and the IC50 (Aromatase [6]) was 550 nM.
Work on `CC(=C(c1ccccc1)c1ccc(NCCCn2cc(C(=O)C(=O)O)c3ccccc32)cc1)c1ccccc1` yielded an inhibition of growth at 10 µM (BT-549) of 14.8%, an inhibition of growth at 10 µM (Hs-578T) of 14.1% and a logP (physchem) of 4.61. The IC50 (Aromatase [6]) was 178 nM.
`CCOC(=O)C(=O)c1cn(CCCCNc2ccc(/C(=C(/C)c3ccccc3OC)c3ccccc3)cc2)c2ccccc12` gave a logP (physchem) of 4.13 and an IC50 (Aromatase [6]) of 3200 nM.
In the case of `CCOC(=O)C(=O)Nc1ccc(/C(=C(/C)c2ccc(Cl)cc2)c2ccccc2)cc1`, the Activity (Albumin [3]) is reported as “Active”.
With `C/C(=C(\c1ccccc1)c1ccc(NCCCCn2cc(C(=O)C(=O)O)c3ccccc32)cc1)c1cccc(Br)c1` the logP (physchem) was 5.15 and the IC50 (Aromatase [6]) was 6800 nM.
`CCOC(=O)C(=O)c1cn(CCCCCCNc2ccc(C(=C(C)c3ccccc3)c3ccccc3)cc2)c2ccccc12` showed a logP (physchem) of 4.98 and an IC50 (Aromatase [6]) of 1940 nM.
Work on `CCOC(=O)C(=O)c1cn(CCCCNc2ccc(/C(=C(/C)c3cccc(Br)c3)c3ccccc3)cc2)c2ccccc12` yielded a logP (physchem) of 4.99 and an IC50 (Aromatase [6]) of 3860 nM.
For `CCOC(=O)C(=O)c1cn(CCNc2ccc(C(=C(C)c3ccccc3)c3ccccc3)cc2)c2ccccc12`, the logP (physchem) was 4.28 and the IC50 (Aromatase [6]) was 1390 nM.
Work on `CC(=C(c1ccccc1)c1ccc(NCCn2cc(C(=O)C(=O)O)c3ccccc32)cc1)c1ccccc1` yielded an inhibition of growth at 10 µM (BT-549) of 32.5%, an inhibition of growth at 10 µM (Hs-578T) of 46.4% and a logP (physchem) of 4.43. It also gave an inhibition of growth at 10 µM (MCF7) of 47.3%, an inhibition of growth at 10 µM (MDA-MB-231) of 13.3% and an IC50 (Aromatase [6]) of 9730 nM. It also gave an inhibition of growth at 10 µM (T47D) of 38.9% and an inhibition of growth at 10 µM (MDA-MB-468) of 55.1%.
`CC(=C(c1ccccc1)c1ccc(NCCCCCCn2cc(C(=O)C(=O)O)c3ccccc32)cc1)c1ccccc1` gave a logP (physchem) of 5.15.
In the case of `CCOC(=O)C(=O)c1cn(CCCCCNc2ccc(/C(=C(/C)c3cccc(Br)c3)c3ccccc3)cc2)c2ccccc12`, the logP (physchem) is reported as 5.16 and the IC50 (Aromatase [6]) is reported as 790 nM.
Work on `CC(=C(c1ccccc1)c1ccc(NCCCCn2cc(C(=O)C(=O)O)c3ccccc32)cc1)c1ccccc1` yielded an inhibition of growth at 10 µM (BT-549) of 40.2%, an inhibition of growth at 10 µM (Hs-578T) of 60.2% and a logP (physchem) of 4.79. The inhibition of growth at 10 µM (MCF7) was 14.3%, the IC50 (Aromatase [6]) was 1370 nM and the inhibition of growth at 10 µM (T47D) was 13.7%. It also gave an inhibition of growth at 10 µM (MDA-MB-468) of 12.9%.
Compound `CCOC(=O)C(=O)c1cn(CCCCNc2ccc(C(=C(C)c3ccccc3)c3ccccc3)cc2)c2ccccc12` has a logP (physchem) of 4.63, an IC50 (Aromatase [6]) of 500 nM and an inhibition of growth at 10 µM (T47D) of 5.76%.
In the case of `CCOC(=O)C(=O)Nc1ccc(/C(=C(/C)c2ccc(OC)cc2)c2ccccc2)cc1`, the Activity (Albumin [3]) is reported as “Active”.
Work on `N#Cc1ccc(C(c2ccc(C#N)cc2)n2cncn2)cc1` [LETROZOLE] yielded a logP (physchem) of 2.29.
With `CC/C(=C(\c1ccccc1)c1ccc(OCCN(C)C)cc1)c1ccccc1` [TAMOXIFEN] the inhibition of growth at 10 µM (BT-549) was 30.2%, the inhibition of growth at 10 µM (Hs-578T) was 39.5% and the inhibition of growth at 10 µM (MCF7) was -10.3%. It also gave an inhibition of growth at 10 µM (MDA-MB-231) of 54.8% and an inhibition of growth at 10 µM (MDA-MB-468) of -13.3%.
